Experiment [1] deals with Lysine-specific histone demethylase 1A (Homo sapiens) (UniProt O60341). Briefly: Inhibition of LSD1 in human NB4 cells assessed as induction of ITGAM mRNA expression at IC50 after 24 hrs by quantitative RT-PCR analysis relative to vehicle-treated control. The class given is cell-based. The following applies: NB-4.
For experiment [2] the target is unchanged. Briefly: Inhibition of LSD1 in human NB4 cells assessed as induction of GFI-1b mRNA expression at IC50 after 24 hrs by quantitative RT-PCR analysis relative to vehicle-treated control. To be noted: NB-4. The class given is cell-based.
The target of experiment [3] is T1, Amine oxidase [flavin-containing] B (Homo sapiens, UniProt P27338).
T1 sequence (P27338 whole entry): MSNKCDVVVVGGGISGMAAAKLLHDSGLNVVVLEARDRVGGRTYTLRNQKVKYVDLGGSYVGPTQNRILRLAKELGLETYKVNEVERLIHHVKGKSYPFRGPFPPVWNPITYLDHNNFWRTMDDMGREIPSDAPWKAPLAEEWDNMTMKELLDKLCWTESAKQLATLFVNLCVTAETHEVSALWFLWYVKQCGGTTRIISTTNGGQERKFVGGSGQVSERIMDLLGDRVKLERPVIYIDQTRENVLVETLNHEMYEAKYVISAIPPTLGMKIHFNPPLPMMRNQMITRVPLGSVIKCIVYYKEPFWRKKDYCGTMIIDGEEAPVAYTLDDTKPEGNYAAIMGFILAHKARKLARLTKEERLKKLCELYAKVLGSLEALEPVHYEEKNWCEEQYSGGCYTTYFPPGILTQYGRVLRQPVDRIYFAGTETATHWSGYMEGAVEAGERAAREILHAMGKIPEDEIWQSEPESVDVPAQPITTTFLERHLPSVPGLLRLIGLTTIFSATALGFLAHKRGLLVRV
Description: Inhibition of human recombinant MAO B expressed in Pichia pastoris using benzylamine as substrate preincubated for 15 mins followed by substrate addition by horseradish peroxidase coupled-spectrofluorimetric assay.

The test system of a further experiment is NB-4. Description: Potency index, ratio of trans-benzyl 1-(4-(2-aminocyclopropyl)phenylamino)-1-oxo-3-phenylpropan-2-ylcarbamate hydrochloride IC50 to compound IC50 for human NB4 cells. The class given is functional.
Experiment [4] deals with MV4-11. Description: Cytotoxicity against human MV4-11 cells assessed as growth inhibition after 72 hrs by CellTiter-Fluor Cell Viability assay. The format is functional, cell-based. To be noted: MV4-11, 72 h.
In another experiment the target is LSD1/CoREST complex (Homo sapiens, UniProt O60341). Description: Inhibition of human recombinant LSD1/CoREST protein expressed in Escherichia coli using monomethylated H3-K4 peptide (21 amino acids) as substrate preincubated for 15 mins followed by substrate addition measured for 12 mins by HRP-coupled Ultrared detection system-based fluorescence analysis.
Experiment [5] addresses LSD1/CoREST complex (Homo sapiens) (UniProt O60341+Q9UKL0). Description: Potency index, ratio of trans-benzyl 1-(4-(2-aminocyclopropyl)phenylamino)-1-oxo-3-phenylpropan-2-ylcarbamate hydrochloride IC50 to compound IC50 for human recombinant LSD1/CoREST protein expressed in Escherichia coli.
The test system of experiment [6] is MV4-11. Briefly: Potency index, ratio of trans-benzyl 1-(4-(2-aminocyclopropyl)phenylamino)-1-oxo-3-phenylpropan-2-ylcarbamate hydrochloride IC50 to compound IC50 for human MV4-11 cells. The format is functional.
Another experiment is filed under the species Homo sapiens. Description: Selectivity ratio of IC50 for human recombinant MAO A to IC50 for human recombinant LSD1/CoREST.
A short description of experiment [7]: Cytotoxicity against human NB4 cells assessed as growth inhibition after 72 hrs by CellTiter-Fluor Cell Viability assay. To be noted: NB-4, 72 h. The class given is functional, cell-based.
Experiment [8] addresses T2, Amine oxidase [flavin-containing] A (Homo sapiens, UniProt P21397).
T2 sequence (P21397 whole entry): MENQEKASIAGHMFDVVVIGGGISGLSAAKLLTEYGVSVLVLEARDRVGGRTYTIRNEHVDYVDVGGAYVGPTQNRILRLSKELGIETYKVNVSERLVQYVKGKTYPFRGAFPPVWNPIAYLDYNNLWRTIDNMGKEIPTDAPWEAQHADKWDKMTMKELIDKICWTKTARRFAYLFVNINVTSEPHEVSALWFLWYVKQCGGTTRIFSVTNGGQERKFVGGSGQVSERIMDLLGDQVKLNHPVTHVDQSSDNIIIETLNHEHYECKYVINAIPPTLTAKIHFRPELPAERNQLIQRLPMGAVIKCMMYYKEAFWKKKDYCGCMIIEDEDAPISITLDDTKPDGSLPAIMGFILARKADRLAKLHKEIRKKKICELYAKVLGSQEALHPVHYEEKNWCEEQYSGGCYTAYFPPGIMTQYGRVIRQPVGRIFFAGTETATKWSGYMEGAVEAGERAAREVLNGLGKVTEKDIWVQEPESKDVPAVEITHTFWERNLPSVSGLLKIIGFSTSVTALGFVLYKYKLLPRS
Description: Inhibition of human recombinant MAO A expressed in Pichia pastoris using kynuramine as substrate preincubated for 15 mins followed by substrate addition by horseradish peroxidase coupled-spectrofluorimetric assay.

Experiment [9] in a line: Cytotoxicity against human NB4 cells assessed as growth inhibition at 100 uM after 72 hrs by CellTiter-Fluor Cell Viability assay. The format is functional. The following applies: NB-4, 72 h.

Structures are written as SMILES.

The text below walks through data of ChEMBL document CHEMBL3734732, “Pyrrole- and indole-containing tranylcypromine derivatives as novel lysine-specific demethylase 1 inhibitors active on cancer cells” (Medchemcomm, 2015).

LSD1/CoREST complex (Homo sapiens), sequence (Q9UKL0 whole entry, looked up, other chains not shown): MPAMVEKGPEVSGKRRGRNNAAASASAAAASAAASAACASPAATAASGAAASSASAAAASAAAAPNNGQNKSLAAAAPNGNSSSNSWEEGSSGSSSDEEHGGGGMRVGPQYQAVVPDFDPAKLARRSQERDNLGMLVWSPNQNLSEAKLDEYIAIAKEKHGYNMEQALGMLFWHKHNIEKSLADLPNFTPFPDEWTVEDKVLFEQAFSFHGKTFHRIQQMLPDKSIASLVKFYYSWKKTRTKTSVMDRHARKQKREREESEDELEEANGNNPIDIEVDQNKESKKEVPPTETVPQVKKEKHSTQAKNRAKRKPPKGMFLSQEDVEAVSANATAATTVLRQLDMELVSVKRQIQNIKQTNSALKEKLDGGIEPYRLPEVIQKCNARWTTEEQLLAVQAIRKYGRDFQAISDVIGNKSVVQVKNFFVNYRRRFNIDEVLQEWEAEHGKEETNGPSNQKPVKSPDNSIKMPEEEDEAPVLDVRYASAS

With `Cl.N[C@@H]1C[C@H]1c1ccc(NC(=O)c2cc3ccccc3n2C(=O)OCc2ccccc2)cc1` (relative stereo), the fold change (FC) in experiment [1] is under 4; in experiment [2], under 6. For the same molecule, the half-inhibitory concentration (IC50) in experiment [3] was over 60 µM; in the experiment with MV4-11 [4], 5.9 µM; on LSD1/CoREST complex, 0.04 µM; in [7], 6.5 µM; in experiment [8], 0.16 µM. In addition, the “Ratio IC50” value is 2 in the experiment with NB-4, 3.7 in [5], 2 in the experiment with MV4-11 [6] and under 8 in the experiment filed under Homo sapiens.

On to `N[C@@H]1C[C@H]1c1ccc(NC(=O)C(Cc2ccccc2)NC(=O)OCc2ccccc2)cc1` (relative stereo), for which the half-maximal inhibitory concentration (IC50) in the experiment with MV4-11 [4] was 10.2 µM; in experiment [7], 17.4 µM.

With `N[C@@H]1C[C@H]1c1ccc(NC(=O)c2ccn(C(=O)OCc3ccccc3)c2)cc1`, the fold change (FC) in experiment [1] is under 4; in experiment [2], under 6. In addition, the 50% inhibitory concentration (IC50) in experiment [3] is 3.9 µM; in the experiment with MV4-11 [4], 15.2 µM; at LSD1/CoREST complex, 0.05 µM; in experiment [7] it was 22.3 µM; in [8] it was 0.11 µM. Also, the Ratio IC50 is 3 in experiment [5] and under 8 in the experiment filed under Homo sapiens.

As to `N[C@@H]1C[C@H]1c1ccc(NC(=O)c2cccn2CC(=O)NCc2ccccc2)cc1` (relative stereo), the fold change (FC) is under 4 in experiment [1] and under 6 in experiment [2]. In addition, the IC50 at LSD1/CoREST complex turned out to be 0.155 µM.

For the molecule `N[C@@H]1C[C@H]1c1ccc(NC(=O)c2cc3ccccc3n2CC(=O)NCc2ccccc2)cc1` (relative stereo), the IC50 at LSD1/CoREST complex is 0.308 µM.

Turning to `N[C@@H]1C[C@H]1c1ccc(NC(=O)c2cccn2CC(=O)c2ccccc2)cc1` (relative stereo), on LSD1/CoREST complex, the IC50 worked out at 1.32 µM.

Turning to `N[C@@H]1C[C@H]1c1ccc(NC(=O)c2ccc[nH]2)cc1`, the fold change (FC) in experiment [1] is under 4; in experiment [2], under 6. For the same molecule, the IC50 at LSD1/CoREST complex amounted to 0.163 µM.

Take `Cl.N[C@@H]1C[C@H]1c1ccc(NC(=O)c2cn(C(=O)OCc3ccccc3)c3ccccc23)cc1` (relative stereo): the fold change (FC) is under 4 in experiment [1] and under 6 in experiment [2]. Also, the IC50 in experiment [3] is over 70 µM; with MV4-11 [4], 2.5 µM; at LSD1/CoREST complex, 0.086 µM; in experiment [7], 9.3 µM; in experiment [8], 0.46 µM. In addition, the “Ratio IC50” value in the experiment on NB-4 is 2; in [5], 1.7; in the experiment on MV4-11 [6], 2; in the experiment filed under Homo sapiens, under 8.

Turning to `N[C@@H]1C[C@H]1c1ccc(NC(=O)c2cc3ccccc3[nH]2)cc1`, the figures for the fold change (FC) in [1] and in experiment [2] were under 4 and under 6, respectively. Moreover, the half-maximal inhibitory concentration (IC50) on LSD1/CoREST complex amounted to 0.065 µM. Also, in [5], the Ratio IC50 was determined as 2.

`N[C@@H]1C[C@H]1c1ccc(NC(=O)c2cccn2CC(=O)Nc2ccccc2)cc1` (relative stereo): the fold change (FC) was under 4 in [1] and under 6 in [2]. Also, the IC50 at LSD1/CoREST complex was 0.125 µM.

`N[C@@H]1C[C@H]1c1ccc(NC(=O)C2CCCN2C(=O)OCc2ccccc2)cc1` (relative stereo): at LSD1/CoREST complex, the IC50 turned out to be 0.061 µM. For the same molecule, the Ratio IC50 in experiment [5] was 2.

Regarding `N[C@@H]1C[C@H]1c1ccc(NC(=O)c2cc3ccccc3n2CC(=O)c2ccccc2)cc1` (relative stereo), the half-inhibitory concentration (IC50) at LSD1/CoREST complex was 0.853 µM.

As to `N[C@@H]1C[C@H]1c1ccc(NC(=O)c2cccn2C(=O)OCc2ccccc2)cc1` (relative stereo), the fold change (FC) in experiment [1] is under 4; in [2] it was under 6. In addition, the IC50 is 75.8 µM in experiment [3], 6.8 µM in the experiment with MV4-11 [4], 0.032 µM on LSD1/CoREST complex and 0.26 µM in experiment [8]. The inhibition at 100 µM in experiment [9] was determined as 56%. Moreover, the Ratio IC50 in experiment [5] was 5; in the experiment listed under Homo sapiens it was under 8.

Turning to `N[C@@H]1C[C@H]1c1ccc(NC(=O)c2cc3ccccc3n2CC(=O)Nc2ccccc2)cc1` (relative stereo), the results for the fold change (FC) in experiment [1] and in experiment [2] were under 4 and under 6, respectively. Further, on LSD1/CoREST complex, the IC50 stood at 0.087 µM. Besides, the Ratio IC50 in experiment [5] was 2.

`N[C@@H]1C[C@H]1c1ccc(NC(=O)CNC(=O)OCc2ccccc2)cc1` (relative stereo): on LSD1/CoREST complex, the IC50 turned out to be 0.304 µM.
